In brackets after ≈: the same amount, converted by molar mass. Like-named read-outs stand apart in the source and are kept apart here.
What was measured:
[1] = system: Escherichia coli (ATCC 8739); test: Agar diffusion antibacterial screening (inhibition zone); type: cell-based; details: ATCC8739, E. coli, 1 mg/mL, Mueller–Hinton agar, read-out: Diameter of inhibition zone
Experimental: (§1) The antibacterial activity of β-enamionitriles (4a-q) was screened using Mueller–Hinton agar medium for bacteria in an agar diffusion methodology. Ciprofloxacin (1 mg/mL) was the reference antibiotic drug used in the analysis of collections that included four gram-positive species of multi drug resistant pathogenic bacteria: Staphylococcus aureus (MRSA) (ATCC 6539), Staphylococcus aureus (ATCC 6538), Bacillus cereus (ATCC 10987), Bacillus subtilis (ATCC 6633), and two gram-negative species of multi drug resistant pathogenic bacteria Klebsiella pneumonia (ATCC 13883) and Escherichia coli (ATCC 8739). […] Using a 1 mg/mL concentration of compounds (4a-q), the minimum zone of inhibition (IZ, the area around the antimicrobial agent where bacterial growth is prevented) was established in mm ± standard deviation beyond the well diameter (6 mm). […] The synthetic compound's inhibitory effects on evaluation against these organisms are depicted in Fig. 9 and Table 1.
(§2) Compound 4a-q was screened for its in vitro antimicrobial activities against pathogenic bacteria species using the standard antibiotics Ampicillin, Gentamycin and Ketoconazole as reference drugs as reported previously. The minimum inhibitory concentration (MIC) was determined as previously reported. The antimicrobial activities were performed at the Regional Centre for Mycology & Biotechnology (RCMP), Al-Azhar University.

[2] = system: Staphylococcus aureus (MRSA) (ATCC 6539); test: as above; type: cell-based; details: read-out: Diameter of inhibition zone
Experimental: as §1, §2

[3] = system: Klebsiella pneumonia (ATCC 13883); test: as above; type: cell-based; details: Klebsiella pneumoniae, ATCC13883, K. pneumonia, 1 mg/mL, Mueller–Hinton agar, read-out: Diameter of inhibition zone
Experimental: as §1, §2

[4] = system: Bacillus cereus (ATCC 10987); test: as above; type: cell-based; details: ATCC10987, B. cereus, 1 mg/mL, Mueller–Hinton agar, read-out: Diameter of inhibition zone
Experimental: as §1, §2

[5] = system: Bacillus subtilis (ATCC 6633); test: as above; type: cell-based; details: ATCC6633, B. subtilis, 1 mg/mL, Mueller–Hinton agar, read-out: Diameter of inhibition zone
Experimental: as §1, §2

[6] = system: Staphylococcus aureus (ATCC 6538); test: as above; type: cell-based; details: ATCC6538, S. aureus, 1 mg/mL, Mueller–Hinton agar, read-out: Diameter of inhibition zone
Experimental: as §1, §2

[7] = system: HFL-1 (human foetal lung); test: MTT cytotoxicity assay, normal cells; type: cell-based; details: HFL1, HFL-1 normal cells, MTT, 24-h incubation, mean ± standard error, read-out: IC50 Normotoxicity HFL-1
Excerpt: (§4) The antiproliferative activity of the newly synthesized 1H-benzo[f]chromenes derivatives (4a-q) was examined in three human cancer cell lines: MCF-7 (breast cancer), HCT-116 (human colon cancer), and HepG-2 (hepatocellular carcinoma), as well as the two normal cell lines, HFL-1 (human foetal lung) and WI-38 (human diploid fibroblasts), using the 3-(4,5-dimethylthiazol-2-yl)-2,5-diphenyl tetrazolium bromide (MTT) colorimetric assay[56].
(§5) Compounds 4a-q was initially evaluated for in vitro antitumor activity against three different human cell lines: MCF-7, HCT-116 and HepG-2. In-vitro cytotoxicity evaluation was performed at the Regional Center for Mycology & Biotechnology (RCMP), Al-Azhar University under different concentrations (50, 25, 12.5, 6.25, 3.125, 1.56 and 0 µg/mL); vinblastine and doxorubicin are used as reference cytotoxic compounds.

[8] = system: MCF-7 (breast cancer); details: values marked b, read-out: IC50 Cancerotoxicity MCF-7; cited from earlier work
[9] = system: WI-38 (human diploid fibroblasts); test: MTT cytotoxicity assay, normal cells; type: cell-based; details: WI-38 normal cells, MTT, 24-h incubation, mean ± standard error, read-out: IC50 Normotoxicity WI-38
Excerpt: as §4, §5

[10] = system: HepG-2 (hepatocellular carcinoma); details: values marked b, read-out: IC50 Cancerotoxicity HepG-2; cited from earlier work
[11] = system: HCT-116 (human colon cancer); details: values marked b, read-out: IC50 Cancerotoxicity HCT-116; cited from earlier work
[12] = system: HepG-2 (hepatocellular carcinoma); test: MTT cytotoxicity assay; type: cell-based; details: Homo sapiens
Excerpt: as §4, §5

[13] = system: MCF-7 (breast cancer); test: MTT cytotoxicity assay; details: Homo sapiens
Excerpt: as §4, §5

[14] = system: HCT-116 (human colon cancer); test: MTT cytotoxicity assay; type: cell-based
Excerpt: as §4, §5

[15] = system: Bacillus subtilis; test: MIC, Mueller Hinton broth resazurin assay; type: cell-based; details: 24 h, MH broth resazurin
Excerpt: (§3) The minimum inhibitory concentration, or MIC, is the lowest concentration needed to stop bacterial growth. When evaluating how well antimicrobial agents work against various bacterial strains, MIC values are crucial. […] The right dosage of the antimicrobial agent to be used in the treatment of bacterial infections can also be determined with the aid of the MIC value. Table 2 and Fig. 10 show the minimum inhibitory concentration (MIC) of the active compound 4 g against various bacterial strains.
as §2

[16] = system: Klebsiella pneumonia; test: MIC, Mueller Hinton broth resazurin assay; type: cell-based; details: Klebsiella pneumoniae, 24 h, MH broth resazurin
Excerpt: as §3, §2

[17] = system: Staphylococcus aureus; test: MIC, Mueller Hinton broth resazurin assay; type: cell-based; details: 24 h, MH broth resazurin
Excerpt: as §3, §2

[18] = system: Escherichia coli; test: MIC, Mueller Hinton broth resazurin assay; type: cell-based; details: 24 h, MH broth resazurin
Excerpt: as §3, §2

[19] = system: Bacillus cereus; test: MIC, Mueller Hinton broth resazurin assay; type: cell-based; details: 24 h, MH broth resazurin
Excerpt: as §3, §2

[20] = system: Staphylococcus aureus (MRSA); test: MIC, Mueller Hinton broth resazurin assay; type: cell-based; details: 24 h, MH broth resazurin
Excerpt: as §3, §2

[21] = HepG2, MTT, 24-h incubation, mean ± standard error, read-out: IC50 Cancerotoxicity HepG-2
[22] = MCF7, 24 h, read-out: IC50 Cancerotoxicity MCF-7
[23] = MTT, 24-h incubation, mean ± standard error, read-out: IC50 Cancerotoxicity HCT-116

SMILES | zone of inhibition at 1000 µg/mL [1] [mm] | zone of inhibition at 1000 µg/mL [2] [mm] | zone of inhibition at 1000 µg/mL [3] [mm] | zone of inhibition at 1000 µg/mL [4] [mm] | zone of inhibition at 1000 µg/mL [5] [mm] | zone of inhibition at 1000 µg/mL [6] [mm] | IC50 [7] [µM] | IC50 [8] [µM] | melting point [°C] | IC50 [9] [µM] | IC50 [10] [µM] | IC50 [11] [µM] | IC50 [12, 21] [µM] | IC50 [13, 22] [µM] | IC50 [14, 23] [µM] | other results
COc1ccc2c3c(ccc2c1)OC(N)=C(C#N)C3c1ccc(Br)cc1 (stereo not shown) [Compound 4e, 3-Amino-1-(4-bromophenyl)-8-methoxy-1H-benzo[f]chromene-2-carbonitrile] | 0 | 12 | 10 | 14 | 0 | 0 | 189.9 ± 1.1 | 4.9 ± 0.25 | 261 to 262 | 165.3 ± 1.2 | 1.7 ± 0.13 | 2.2 ± 0.58 |  |  |  | 
COc1ccc2c3c(ccc2c1)OC(N)=C(C#N)C3c1ccc(Cl)cc1 (stereo not shown) [Compound 4d, 3-Amino-1-(4-chlorophenyl)-8-methoxy-1H-benzo[f]chromene-2-carbonitrile] | 0 | 12 | 12 | 15 | 0 | 0 | 164.4 ± 1.1 | 8.6 ± 0.29 | 246 to 247 | 165.5 ± 1.3 | 0.8 ± 0.08 | 6.9 ± 0.97 |  |  |  | 
COc1ccc2c3c(ccc2c1)OC(N)=C(C#N)C3c1ccc(Cl)c(Cl)c1 (stereo not shown) [Compound 4m, 3-Amino-1-(3,4-dichlorophenyl)-8-methoxy-1H-benzo[f]chromene-2-carbonitrile] | 10 | 14 | 13 | 13 | 0 | 0 | 181 ± 0.1 |  | 241 to 242 | 175.5 ± 0.2 |  |  | 1.8 ± 0.06 | 1.3 ± 0.21 | 2.3 ± 0.97 | IC50 ([12]; HepG2, given in µg/mL, read-out: IC50 HepG-2): 0.7 ± 0.06 µg/mL; IC50 ([13]; MCF7, read-out: IC50 MCF-7): 0.5 ± 0.21 µg/mL; IC50 ([14]; given in µg/mL, read-out: IC50 HCT-116): 0.9 ± 0.97 µg/mL
COc1ccc2c3c(ccc2c1)OC(N)=C(C#N)C3c1ccc(F)cc1F (stereo not shown) [Compound 4g, 3-Amino-1-(2,4-difluorophenyl)-8-methoxy-1H-benzo[f]chromene-2-carbonitrile] | 14 | 17 | 16 | 20 | 21 | 23 | 179.4 ± 0.1 |  | 300 to 301 | 190.1 ± 0.3 |  |  | 1.9 ± 0.5 | 2.7 ± 0.23 | 6 ± 0.11 | MIC [15]: 1000 µg/mL (≈ 2740 µM); MIC [16]: 500 µg/mL (≈ 1370 µM); MIC [17]: 1000 µg/mL (≈ 2740 µM); MIC [18]: 250 µg/mL (≈ 686 µM); MIC [19]: 1000 µg/mL (≈ 2740 µM); MIC [20]: 500 µg/mL (≈ 1370 µM)
COc1ccc2c3c(ccc2c1)OC(N)=C(C#N)C3c1ccc(F)cc1 (stereo not shown) [Compound 4a, 3-Amino-1-(4-fluorophenyl)-8-methoxy-1H-benzo[f]chromene-2-carbonitrile] | 11 | 14 | 14 | 13 | 0 | 0 |  | 12.7 ± 0.05 | 255 to 256 |  | 1.5 ± 0.01 | 14.2 ± 0.01 |  |  |  | 
